Tests used:
[1] = target: T1, human CSNK1D (Homo sapiens, UniProt P48730); assay: Whole Cell nBRET CSNK1D Binding Assay; settings: living CHO cells stably expressing human CSNK1D tagged with nanoluciferase; NanoBret tracer 130 nM; 2 hours at 37 C
T1 construct: expressed in transfected cells

[2] = target: T2, human recombinant GST cleaved CSNK1D (Homo sapiens, UniProt P48730); assay: Purified Enzyme Assay (ADP-Glo CSNK1D Kinase Assay); type: biochemical; settings: 2 nM CSNK1D; peptide substrate 150 μM; ATP 20 μM; 45 minutes at room temperature
T2 construct: GST (cleaved yes); purchased University of Dundee clone DU 19064
Description: In this assay, CSNK1D phosphorylates a substrate peptide PLSRTL-pS-VASLPGL in the presence of ATP. […] This assay monitors CSNK1D kinase activity by measuring the amount of ADP produced in the assay.
The substrate mix is added to each well of a low volume, 384-well, white opaque plate. Test compounds were diluted in HBSS and added in a dose-response to the plate.
The total volume of each reaction is 5 ul (2 μL of substrate mix, 1 μL of diluted compounds, and 2 μL of human recombinant CSNK1D). The plates are incubated for 45 minutes at room temperature.
ADP was quantified using the ADP-Glo™ Kinase Assay. ADP-Glo Reagent (5 μL) was added to each well. After a 1 hour incubation at room temperature, Kinase Detection Reagent (10 μL) was added to each well and incubated for 30 minutes. […] The raw data from the Envision is used to calculate percent activity.

T1 sequence (P48730 whole entry): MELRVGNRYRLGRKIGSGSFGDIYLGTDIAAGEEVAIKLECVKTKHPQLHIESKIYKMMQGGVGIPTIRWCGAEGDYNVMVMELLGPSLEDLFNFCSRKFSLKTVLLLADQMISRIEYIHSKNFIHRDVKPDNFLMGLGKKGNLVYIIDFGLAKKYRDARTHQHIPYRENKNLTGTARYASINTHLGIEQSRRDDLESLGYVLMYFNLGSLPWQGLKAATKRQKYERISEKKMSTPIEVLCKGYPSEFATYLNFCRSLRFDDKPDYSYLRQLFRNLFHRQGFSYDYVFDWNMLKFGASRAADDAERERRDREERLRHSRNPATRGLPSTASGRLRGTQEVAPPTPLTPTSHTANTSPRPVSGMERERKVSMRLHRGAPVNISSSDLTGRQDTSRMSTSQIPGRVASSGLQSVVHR
T2 sequence (P48730 whole entry): as above

| Structure (SMILES) | IC50 [1] [nM] | IC50 [2] [nM] |
| --- | --- | --- |
| C[C@]1(CF)CCc2c(-c3ccnc4[nH]ncc34)c(-c3ccc(F)cn3)nn2C1 (single isomer, unassigned) [Example 51, (*)-4-[6-(Fluoromethyl)-2-(5-fluoro-2-pyridyl)-6-methyl-5,7-dihydro-4H-pyrazolo[1,5-a]pyridin-3-yl]-1H-pyrazolo[3,4-b]pyridine] | 11 | 1 |
| Fc1ccc(-c2nn3c(c2-c2ccnc4cn[nH]c24)CCC3)nc1 [Example 220, 7-[2-(5-Fluoro-2-pyridyl)-5,6-dihydro-4H-pyrrolo[1,2-b]pyrazol-3-yl]-1H-pyrazolo[4,3-b]pyridine] | 1490 | 99 |
| Cc1cc(-c2c(-c3ncc(F)cc3F)nn3c2OCCC3)c2cn[nH]c2n1 [Example 189, 2-(3,5-Difluoro-2-pyridyl)-3-(6-methyl-1H-pyrazolo[3,4-b]pyridin-4-yl)-6,7-dihydro-5H-pyrazolo[5,1-b][1,3]oxazine] | 320 | 10 |
| CC1(C)Cn2nc(-c3ccc(F)cn3)c(-c3ccnc(NC(=O)C4CC4(F)F)c3)c2CO1 (centres unmarked) [Example 135, 2,2-Difluoro-N-(4-(2-(5-fluoropyridin-2-yl)-6,6-dimethyl-6,7-dihydro-4H-pyrazolo[5,1-c][1,4]oxazin-3-yl)pyridin-2-yl)cyclopropane-1-carboxamide] | 6 | 3 |
| Fc1ccc(-c2nn3c(c2-c2ccnc4[nH]ncc24)C2CCC3CC2)cc1 [Example 64, 2-(4-Fluorophenyl)-3-(1H-pyrazolo[3,4-b]pyridin-4-yl)-4,5,6,7-tetrahydro-4,7-ethanopyrazolo[1,5-a]pyridine] | 12 | 1 |
| [2H]C([2H])([2H])C1(C([2H])([2H])[2H])CCc2c(-c3ccnc4[nH]ncc34)c(-c3ccc(F)cn3)nn2C1 [Example 283, 4-(2-(5-fluoropyridin-2-yl)-6,6-bis(methyl-d3)-4,5,6,7-tetrahydropyrazolo[1,5-a]pyridin-3-yl)-1H-pyrazolo[3,4-b]pyridine] | 7 | 2 |
| CC(C)[C@H]1Cn2nc(-c3ccc(F)cn3)c(-c3ccnc4[nH]ncc34)c2CO1 (single isomer, unassigned) [Example 98, (*S)-2-(5-Fluoropyridin-2-yl)-6-isopropyl-3-(1H-pyrazolo[3,4-b]pyridin-4-yl)-6,7-dihydro-4H-pyrazolo[5,1-c][1,4]oxazine] | 2280 | 31 |
| CC1(C)Cn2nc(-c3ccc(F)cn3)c(-c3ccnc(C(F)F)c3)c2CO1 [Example 129, 3-(2-(Difluoromethyl)pyridin-4-yl)-2-(5-fluoropyridin-2-yl)-6,6-dimethyl-6,7-dihydro-4H-pyrazolo[5,1-c][1,4]oxazine] | 440 | 36 |
| CC1(C)Cn2nc(-c3ccc(F)cn3)c(-c3ccnc4ccsc34)c2CO1 [Example 137, 2-(5-Fluoropyridin-2-yl)-6,6-dimethyl-3-(thieno[3,2-b]pyridin-7-yl)-6,7-dihydro-4H-pyrazolo[5,1-c][1,4]oxazine] | 1330 | 54 |
| C[C@@H]1CCc2c(-c3ccnc4[nH]ncc34)c(-c3ccc(F)cc3)nn21 [Example 16, 4-[(6R)-2-(4-Fluorophenyl)-6-methyl-5,6-dihydro-4H-pyrrolo[1,2-b]pyrazol-3-yl]-1H-pyrazolo[3,4-b]pyridine] | 51 | 4 |
| C[C@@H]1OCc2c(-c3ccnc4[nH]ncc34)c(-c3ccc(F)cn3)nn2[C@@H]1C (single isomer, unassigned) [Example 117, (6*S,7*R)-2-(5-Fluoropyridin-2-yl)-6,7-dimethyl-3-(1H-pyrazolo[3,4-b]pyridin-4-yl)-6,7-dihydro-4H-pyrazolo[5,1-c][1,4]oxazine] | 925 | 45 |
| C[C@@H]1OCc2c(-c3ccnc4[nH]ncc34)c(-c3ccc(F)cn3)nn2[C@H]1C (stereo in doubt) [Example 119, (6*S,7*S)-2-(5-Fluoropyridin-2-yl)-6,7-dimethyl-3-(1H-pyrazolo[3,4-b]pyridin-4-yl)-6,7-dihydro-4H-pyrazolo[5,1-c][1,4]oxazine] | 751 | 32 |
| C[C@@H]1C[C@H](C)Oc2c(-c3ccnc4[nH]ncc34)c(-c3ccc(F)cn3)nn21 (single isomer, unassigned) [Example 202, (5*S,7*R)-2-(5-Fluoro-2-pyridyl)-5,7-dimethyl-3-(1H-pyrazolo[3,4-b]pyridin-4-yl)-6,7-dihydro-5H-pyrazolo[5,1-b][1,3]oxazine] | 198 | 10 |
| Cc1cc(-c2c(-c3ccc(F)cn3)nn3c2CO[C@H](C)C3)c2cn[nH]c2n1 (single isomer, unassigned) [Example 87, (*R)-2-(5-Fluoro-2-pyridyl)-6-methyl-3-(6-methyl-1H-pyrazolo[3,4-b]pyridin-4-yl)-6,7-dihydro-4H-pyrazolo[5,1-c][1,4]oxazine] | 162 | 13 |
| CC1(C)Cn2nc(-c3ccncc3Cl)c(-c3ccnc4[nH]ncc34)c2CO1 [Example 162, 2-(3-Chloropyridin-4-yl)-6,6-dimethyl-3-(1H-pyrazolo[3,4-b]pyridin-4-yl)-6,7-dihydro-4H-pyrazolo[5,1-c][1,4]oxazine] | > 10000 | 143 |

Continued, values first:

| IC50 [1] [nM] | IC50 [2] [nM] | Structure (SMILES) |
| --- | --- | --- |
| 75 | 6 | CCC(=O)Nc1cc(-c2c(-c3ccc(F)cn3)nn3c2OCCC3)ccn1 [Example 439, N-(4-(2-(5-Fluoropyridin-2-yl)-6,7-dihydro-5H-pyrazolo[5,1-b][1,3]oxazin-3-yl)pyridin-2-yl)propionamide] |
| 102 | 5 | Cc1cc(-c2c(-c3ccc(F)cc3)nn3c2[C@@H]2CC[C@H]3C2)c2cn[nH]c2n1 (single isomer, unassigned) [Example 364, (4*R,7*S)-2-(4-Fluorophenyl)-3-(6-methyl-1H-pyrazolo[3,4-b]pyridin-4-yl)-4,5,6,7-tetrahydro-4,7-methanopyrazolo[1,5-a]pyridine] |
| 7 | 1 | Fc1ccc(-c2nn3c(c2-c2ccnc4[nH]nc(Cl)c24)OCC2(CC2)C3)nc1 [Example 458, 3′-(3-Chloro-1H-pyrazolo[3,4-b]pyridin-4-yl)-2′-(5-fluoropyridin-2-yl)-5′H,7′H-spiro[cyclopropane-1,6′-pyrazolo[5,1-b][1,3]oxazine]] |
| 70 | 7 | Cc1nc2[nH]nc(C)c2c(-c2c(-c3ccc(F)cn3)nn3c2CC[C@H]2[C@@H]3C2(F)F)c1F (single isomer, unassigned) [Example 360, (5a*S,6a*R)-6,6-Difluoro-3-(5-fluoro-3,6-dimethyl-1H-pyrazolo[3,4-b]pyridin-4-yl)-2-(5-fluoropyridin-2-yl)-5,5a,6,6a-tetrahydro-4H-cyclopropa[e]pyrazolo[1,5-a]pyridine] |
| 3 | 1 | CC1(C(F)(F)F)Cn2nc(-c3ccc(F)cc3)c(-c3ccnc4[nH]ncc34)c2CO1 (single isomer, unassigned) [Example 417, (*)-2-(4-Fluorophenyl)-6-methyl-3-(1H-pyrazolo[3,4-b]pyridin-4-yl)-6-(trifluoromethyl)-6,7-dihydro-4H-pyrazolo[5,1-c][1,4]oxazine] |
| 3 | 1 | CC(=O)Nc1cc(-c2c(-c3ccc(F)cc3)nn3c2CCC2C3C2(F)F)ccn1 (racemic) [Example 348, N-(4-(6,6-Difluoro-2-(4-fluorophenyl)-5,5a,6,6a-tetrahydro-4H-cyclopropa[e]pyrazolo[1,5-a]pyridin-3-yl)pyridin-2-yl)acetamide] |
| 95 | 5 | [2H]C([2H])([2H])C1(C([2H])([2H])[2H])Cn2nc(-c3ccc(F)cn3)c(-c3c(F)cnc4[nH]ncc34)c2CO1 [Example 399, 3-(5-Fluoro-1H-pyrazolo[3,4-b]pyridin-4-yl)-2-(5-fluoropyridin-2-yl)-6,6-bis(methyl-d3)-6,7-dihydro-4H-pyrazolo[5,1-c][1,4]oxazine] |
| 2260 | 235 | [2H]C([2H])([2H])[C@]1(C(F)(F)F)Cn2nc(-c3ccc(F)cn3)c(-c3ccnc4[nH]nc(C)c34)c2CO1 (single isomer, unassigned) [Example 425, (*R)-2-(5-Fluoropyridin-2-yl)-6-(methyl-d3)-3-(3-methyl-1H-pyrazolo[3,4-b]pyridin-4-yl)-6-(trifluoromethyl)-6,7-dihydro-4H-pyrazolo[5,1-c][1,4]oxazine] |
| 1 | 1 | Fc1ccc(-c2nn3c(c2-c2ccnc4[nH]ncc24)CCC2(C3)CC2(F)F)cc1 (single isomer, unassigned) [Example 325, (*R)-2,2-Difluoro-2′-(4-fluorophenyl)-3′-(1H-pyrazolo[3,4-b]pyridin-4-yl)-4′,5′-dihydro-7′H-spiro[cyclopropane-1,6′-pyrazolo[1,5-a]pyridine]] |
| 330 | 8 | C[C@]1(C(F)(F)F)Cn2nc(-c3ccc(F)cn3)c(-c3ccn4nccc4c3)c2CO1 (single isomer, unassigned) [Example 414, (*R)-2-(5-Fluoropyridin-2-yl)-6-methyl-3-(pyrazolo[1,5-a]pyridin-5-yl)-6-(trifluoromethyl)-6,7-dihydro-4H-pyrazolo[5,1-c][1,4]oxazine] |
